Consider ten compounds from patent US10604512B2, “3-(1H-indol-2-yl)-1H-indazoles and therapeutic uses thereof” (Samumed, LLC, priority 2015, dated 2020).

Common to all, as to type: cell-based
Test [1] deals with Wnt activity (Sp5-Luc reporter, TCF/LEF binding sites) in SW480 colon carcinoma cells. In words: Screening assay for Wnt activity: Sp5-Luc reporter gene assay in stably transduced SW480 colon carcinoma cells. The following applies: Homo sapiens, overnight incubation, 10-point curve from 10 μM. An excerpt: The screening assay for Wnt activity is described as follows. Reporter cell lines can be generated by stably transducing cancer cell lines (e.g., colon cancer) or primary cells (e.g., IEC-6 intestinal cells) with a lentiviral construct that includes a Wnt-responsive promoter driving expression of the firefly luciferase gene.
SW480 colon carcinoma cells were transduced with a lentiviral vector expressing luciferase with a human Sp5 promoter consisting of a sequence of eight TCF/LEF binding sites. SW480 cells stably expressing the Sp5-Luc reporter gene and a hygromycin resistance gene were selected by treatment with 150 μg/mL of hygromycin for 7 days. These stably transduced SW480 cells were expanded in cell culture and used for all further screening activities. Each compound was dissolved in DMSO as a 10 mM stock and used to prepare compound source plates. Serial dilution (1:3, 10-point dose-response curves starting from 10 μM) and compound transfer was performed using the ECHO 550 (Labcyte, Sunnyvale, Calif.) into 384-well white solid bottom assay plates (Greiner Bio-One) with appropriate DMSO backfill for a final DMSO concentration of 0.1%. For Sp5-Luc reporter gene assays, the cells were plated at 4,000 cells/well in 384-well plates with medium containing 1% fetal bovine serum and incubated overnight at 37° C. and 5% CO2. Following incubation, 20 μl of BrightGlo luminescence reagent (Promega) was added to each well of the 384-well assay plates. The plates were placed on an orbital shaker for 2 min and then luminescence was quantified using the Envision (Perkin Elmer) plate reader. Readings were normalized to DMSO only treated cells, and normalized activities were utilized for EC50 calculations using the dose-response log (inhibitor) vs. response variable slope (four parameters) nonlinear regression feature available in GraphPad Prism 5.0 (or Dotmatics). For EC50 of >10 μM, the percent inhibition at 10 μM is provided.

In a further test the test system is SW480 colon cancer cells. In words: Cell viability assay (CellTiter-Blue) in SW480 colon cancer cells. The following applies: Homo sapiens, 96 h, four days, CellTiter-Blue. On the procedure:
Representative compounds were screened using the following assay procedure to assess the effect on cell viability as described below.
Each compound was dissolved in DMSO as a 10 mM stock and used to prepare compound source plates. Serial dilution (1:3, 8-point dose-response curves from 10 μM to 0.0045 μM) and compound transfer was performed using the ECHO 550 (Labcyte, Sunnyvale, Calif.) into 96-well clear bottom, black-walled plates (Corning-Costar).
Approximately 2×10^3 SW480 colon cancer cells were seeded into each well and allowed to incubate in the presence or absence of compound for four days at 37° C./5% CO2. Eight replicates of DMSO-treated cells served as controls and cells treated with compound were performed in duplicate.
After incubation, 20 μL of CellTiter-Blue (Promega) was added to each well allowed to incubate for approximately 3 hours. This reagent was a buffered solution which contains resazurin, metabolically active cells were able to reduce rezarurin (blue) into resorufin (pink) which was highly fluorescent. This measured fluorescence was used as a readout for cell viability.
After incubation, the plates were read at Ex 560 nm Em 590 nm (Cytation 3, BioTek). Dose-response curves were generated and EC50 concentration values were calculated using non-linear regression curve fit in the GraphPad Prism (San Diego, Calif.) or Dotmatics' Studies Software (Bishops Stortford, UK). For EC50 of >10 μM, the percent inhibition at 10 μM is provided.

Test [2] concerns Primary human fibroblasts derived from IPF patients (LL29 cells) treated with TGF-β1. Nature of the test: Inhibition of the fibrotic process: αSMA staining in TGF-β1-treated primary human fibroblasts from IPF patients (LL29 cells). The following applies: Fibroblast, 96 h, % αSMA-positive LL29 cells, TGF-β1 20 ng/mL, 4 days. An excerpt: Representative compounds were screened using primary human fibroblasts (derived from IPF patients) treated with TGF-β1 to determine their ability to inhibit the fibrotic process.
Primary human fibroblasts derived from IPF patients (LL29 cells) [^1Xiaoqiu Liu, et. al., “Fibrotic Lung Fibroblasts Show Blunted Inhibition by cAMP Due to Deficient cAMP Response Element-Binding Protein Phosphorylation”, Journal of Pharmacology and Experimental Therapeutics (2005), 315(2), 678-687; ^2Watts, K. L., et. al., “RhoA signaling modulates cyclin D1 expression in human lung fibroblasts; implications for idiopathic pulmonary fibrosis”, Respiratory Research (2006), 7(1), 88] were obtained from American Type Culture Collection (ATCC) and expanded in F12 medium supplemented with 15% Fetal Bovine Serum and Penicillin/Streptomycin.
Each compound was dissolved in DMSO as a 10 mM stock and used to prepare compound source plates. Serial dilution (1:2, 11-point dose-response curves from 10 μM to […]) and compound transfer was performed using the ECHO 550 (Labcyte, Sunnyvale, Calif.) into 384-well clear bottom assay plates (Greiner Bio-One) with appropriate DMSO backfill for a final DMSO concentration of 0.1%. LL29 cells are plated at 1,500 cells/well in 80 μL/well F12 medium supplemented with 1% Fetal Bovine Serum. One hour after addition of the cells, TGF-β1 (Peprotech; 20 ng/mL) was added to the plates to induce fibrosis (ref 1 and 2 above). Wells treated with TGF-β1 and containing DMSO were used as controls. Cells were incubated at 37° C. and 5% CO2 for 4 days. Following incubation for 4 days, SYTOX green nucleic acid stain (Life Technologies [Thermo Fisher Scientific]) was added to the wells at a final concentration of 1 μM and incubated at room temperature for 30 min. Cells were then fixed using 4% formaldehyde (Electron Microscopy Sciences), washed 3 times with PBS followed by blocking and permeabilization using 3% Bovine Serum Albumin (BSA; Sigma) and 0.3% Triton X-100 (Sigma) in PBS. Cells were then stained with antibody specific to α-smooth muscle actin (αSMA; Abcam) (ref 1 and 2 above) in 3% Bovine Serum Albumin (BSA; Sigma) and 0.3% Triton X-100 (Sigma) in PBS, and incubated overnight at 4° C. Cells were then washed 3 times with PBS, followed by incubation with Alexa Flor-647 conjugated secondary antibody (Life Technologies [Thermo Fisher Scientific]) and DAPI at room temperature for 1 hour. Cells were then washed 3 times with PBS and plates were sealed for imaging. αSMA staining was imaged by excitation at 630 nm and emission at 665 nm and quantified using the Compartmental Analysis program on the CellInsight CX5 (Thermo Scientific). Dead or apoptotic cells were excluded from analysis based on positive SYTOX green staining. % of total cells positive for αSMA were counted in each well and normalized to the average of 11 wells treated with TGF-β1 on the same plate using Dotmatics' Studies Software. The normalized averages (fold change over untreated) of 3 replicate wells for each compound concentration were used to create dose-responses curves and EC50 values were calculated using non-linear regression curve fit in the Dotmatics' Studies Software. For EC50 of >10 μM, the percent inhibition at 10 μM is provided.

In another test the test system is IL-6. Nature of the test: Inhibition of IL-6 in LPS-stimulated THP-1 human monocyte cells (HTRF). The following applies: IL-6 inhibition, LPS-stimulated THP-1 cells, HTRF. On the procedure:
Human monocyte cell line (THP-1 cells; Catalog # TIB-202, ATCC, Manassas, Va.) were cultured in Roswell Park Memorial Institute (RPMI) 1640 Medium (Catalog #21870-100, Buffalo, N.Y.) with 1% L-glutamine, 1% HEPES, 1% Sodium Pyruvate, 2% Sodium Bicarbonate supplemented with 100 units/mL penicillin, 50 μg/mL streptomycin, 2-mercaptoethanol (0.05 mM) [basal medium] and 10% fetal bovine serum (Catalog #16140089, Life Technologies, Carlsbad, Calif.) at 37° C. and 5% CO2.
THP-1 cells were cultured in basal media with 1% FBS for 24 hours before the start of the assay. Each compound was dissolved in DMSO as a 10 mM stock and used to prepare compound source plates. Serial dilution (1:3, 10-point dose-response curves starting from 10 μM) and compound transfer was performed using the ECHO 550 (Labcyte, Sunnyvale, Calif.) into 384-well white low volume assay plates (Greiner Bio-One) with appropriate DMSO backfill for a final DMSO concentration of 0.1%. THP-1 cells were plated at 5000 cells/well in the 384-well plates and incubated at 37° C. for 2 h. 500 ng/mL of LPS was added after 2 hours and cells were incubated for another 22 hours at 37° C. Plates were spun in a centrifuge for 1 minute at […] and a mixture of anti-IL6 XL665, and anti-IL6 Cryptate diluted in reconstitution buffer (Cisbio Inc.) was added to each well. Following incubation for 3 hrs at room temperature, Homogeneous Time-Resolved Fluorescence (HTRF) was measured using the Envision (Perkin Elmer) at 665 nm and […]. The ratio of fluorescence at 665 nm to 620 nm was used as a readout for IL6 quantification. All samples were processed in duplicate. Readings were normalized to DMSO treated cells and normalized activities were utilized for EC50 calculations using the dose-response log (inhibitor) vs. response variable slope (four parameters) nonlinear regression feature available in GraphPad Prism 5.0 (or Dotmatics). For EC50 of >10 μM, the percent inhibition at 10 μM is provided.

Consider `O=C(Cc1ccccc1)Nc1cncc(-c2ccc3[nH]nc(-c4cc5c(N6CCCCC6)cccc5[nH]4)c3c2)c1` [Compound 178, 2-Phenyl-N-(5-(3-(4-(piperidin-1-yl)-1H-indol-2-yl)-1H-indazol-5-yl)pyridin-3-yl)acetamide], for which the EC50 in test [1] is 811 nM; with SW480 colon cancer cells it was 3720 nM; in test [2], 989 nM; in the test on IL-6, 1290 nM.

As for `CCCC(=O)Nc1cncc(-c2ccc3[nH]nc(-c4cc5c(N6CCCCC6)cccc5[nH]4)c3c2)c1` [Compound 185, N-(5-(3-(4-(Piperidin-1-yl)-1H-indol-2-yl)-1H-indazol-5-yl)pyridin-3-yl) butyramide], the EC50 in test [1] came out at 469 nM; in the test with SW480 colon cancer cells, 1840 nM; in test [2], 682 nM; in the test on IL-6, 7150 nM.

As to `CC(C)Nc1cncc(-c2ccc3[nH]nc(-c4cc5c(N6CCN(C)CC6)cccc5[nH]4)c3c2)c1` [Compound 236, N-Isopropyl-5-(3-(4-(4-methylpiperazin-1-yl)-1H-indol-2-yl)-1H-indazol-5-yl)pyridin-3-amine], the EC50 came to 352 nM in test [1], 677 nM with SW480 colon cancer cells, 761 nM in test [2] and 253 nM in the test on IL-6.

Regarding `CCCCC(=O)Nc1cncc(-c2ccc3[nH]nc(-c4cc5c(N6CCN(C)CC6)cccc5[nH]4)c3c2)c1` [Compound 243, N-(5-(3-(4-(4-Methylpiperazin-1-yl)-1H-indol-2-yl)-1H-indazol-5-yl)pyridin-3-yl)pentanamide], the EC50 in test [1] was found to be 664 nM; in the test with SW480 colon cancer cells it was 1820 nM; in test [2], 1270 nM; with IL-6, 15 nM.

Regarding `CN1CCN(c2cccc3[nH]c(-c4n[nH]c5ccc(-c6cncc(CN7CCC(F)(F)C7)c6)cc45)cc23)CC1` [Compound 250, 5-(5-((3,3-Difluoropyrrolidin-1-yl)methyl)pyridin-3-yl)-3-(4-(4-methylpiperazin-1-yl)-1H-indol-2-yl)-1H-indazole], the EC50 in test [1] is 291 nM; in the test on SW480 colon cancer cells, 743 nM; in test [2] it was 364 nM; in the test with IL-6 it was 99 nM.

Turning to `Nc1cncc(-c2ccc3[nH]nc(-c4cc5c(-c6ccsc6)cccc5[nH]4)c3c2)c1` [Compound 283, 5-(3-(4-(Thiophen-3-yl)-1H-indol-2-yl)-1H-indazol-5-yl)pyridin-3-amine], the EC50 in test [1] amounted to 40 nM; with SW480 colon cancer cells, 111 nM; in test [2], 809 nM; in the test on IL-6, 180 nM.

Regarding `CN(C)c1cncc(-c2ccc3[nH]nc(-c4cc5c(-c6ccoc6)cccc5[nH]4)c3c2)c1` [Compound 315, 5-(3-(4-(Furan-3-yl)-1H-indol-2-yl)-1H-indazol-5-yl)-N,N-dimethylpyridin-3-amine], the EC50 was 450 nM in test [1], 633 nM in the test on SW480 colon cancer cells, 4270 nM in test [2] and 200 nM in the test on IL-6.

With `c1cc(-c2ccoc2)c2cc(-c3n[nH]c4ccc(-c5cncc(CN6CCCCC6)c5)cc34)[nH]c2c1` [Compound 323, 3-(4-(Furan-3-yl)-1H-indol-2-yl)-5-(5-(piperidin-1-ylmethyl)pyridin-3-yl)-1H-indazole], the EC50 is 185 nM in test [1], 442 nM with SW480 colon cancer cells, 728 nM in test [2] and 593 nM in the test with IL-6.

`FC1(F)CCN(Cc2cncc(-c3ccc4[nH]nc(-c5cc6c(-c7ccoc7)cccc6[nH]5)c4c3)c2)C1` [Compound 334, 5-(5-((3,3-Difluoropyrrolidin-1-yl)methyl)pyridin-3-yl)-3-(4-(furan-3-yl)-1H-indol-2-yl)-1H-indazole]: the half-maximal effective concentration (EC50) in test [1] is 182 nM; in the test on SW480 colon cancer cells, 470 nM; in test [2], 154 nM; with IL-6 it was 475 nM.

`O=C(Nc1cncc(-c2ccc3[nH]nc(-c4cc5c(-c6cccs6)cccc5[nH]4)c3c2)c1)C1CCCC1` [Compound 358, N-(5-(3-(4-(Thiophen-2-yl)-1H-indol-2-yl)-1H-indazol-5-yl)pyridin-3-yl) cyclopentanecarboxamide]: the EC50 amounted to 1230 nM in test [1], 1100 nM with SW480 colon cancer cells, 21 nM in test [2] and 732 nM in the test on IL-6.
